The target of one test is T1, BRD4 (Homo sapiens, UniProt O60885).
T1 construct: endogenous in cells; host or cells: HEK293T cells stably expressing LgBit, with CRISPR/Cas9 knock-in of HiBit at the BRD4 C-terminus
The test can be described thus: Luciferase (HiBit) assay of BRD4 degradation in HEK293T LgBit (BRD4-HiBit KI) cells. In kind it is cell-based. The following applies: for BRD4 (luminescence value): compound 100 nM, luminescence at 8 hours, DMSO-only control. From the text: (§1) Cell lines were constructed by transfecting LgBit vector into HeLa and HEK293T cell lines to be stably expressed. Then, gRNA and a donor were created to express the HiBit amino acid sequence behind the C-terminus of the PLK1 and BRD4 proteins contained in each cell, and then inserted into the cells together with a vector capable of expressing CRISPR/Cas9. Only cells that had undergone knock-in after completion of insertion were selected and passaged to be used.
(§2) Compounds according to Comparative Examples and Examples were completely dissolved in DMSO (Sigma-Aldrich Cat. No. D2438, Lot. No. RNBJ6524) and used in the following experiments. The compound of Comparative Example was the HBL-4 compound disclosed in the document (see Mu et al., Biochem Biophys Res Commun., 2020, 521(4): 833), which targets PLK1 and BRD4 like the compounds of the present invention, and the DMSO-only treatment group was used as the control group.
As to HEK293T LgBit (BRD4-HiBit KI), 4×10^4 cells were seeded in each well of a 96-well white plate (SPL) and cultured in a total culture medium volume of 150 μl.
(§3) Each cell line was incubated in a CO2 incubator for 18 hours, and then Endurazine was added to each well to reach 4% of the total volume. Here, the concentration of each compound after the addition was 300 nM for HeLa LgBit (Plk1-HiBit KI) and 100 nM for HEK293T LgBit (BRD4-HiBit KI). Then, the wavelength of the plate reader was set to 470 to 480 nm, and luminescence was tracked in real time.

For another test, the target named is T2, PLK1 (Homo sapiens, UniProt P53350).
T2 construct: endogenous in cells; host or cells: HeLa cells stably expressing LgBit, with CRISPR/Cas9 knock-in of HiBit at the PLK1 C-terminus
T2 sequence (P53350 whole entry): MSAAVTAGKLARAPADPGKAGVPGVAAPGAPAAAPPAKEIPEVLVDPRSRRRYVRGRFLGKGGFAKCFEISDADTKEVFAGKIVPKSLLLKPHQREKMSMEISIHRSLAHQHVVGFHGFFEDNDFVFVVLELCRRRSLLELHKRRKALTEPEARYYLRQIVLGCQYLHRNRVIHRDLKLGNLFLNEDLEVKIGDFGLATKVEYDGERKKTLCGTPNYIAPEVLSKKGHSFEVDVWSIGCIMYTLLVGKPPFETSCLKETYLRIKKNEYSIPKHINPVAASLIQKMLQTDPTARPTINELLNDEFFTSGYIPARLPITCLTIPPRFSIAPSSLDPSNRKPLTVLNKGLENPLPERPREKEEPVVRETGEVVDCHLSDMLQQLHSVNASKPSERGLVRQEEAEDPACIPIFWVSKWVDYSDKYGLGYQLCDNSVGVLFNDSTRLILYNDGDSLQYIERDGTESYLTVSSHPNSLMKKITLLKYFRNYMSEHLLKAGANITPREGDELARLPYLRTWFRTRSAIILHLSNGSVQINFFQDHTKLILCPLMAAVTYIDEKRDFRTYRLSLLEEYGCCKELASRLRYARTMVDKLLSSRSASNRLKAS
The test can be described thus: Luciferase (HiBit) assay of PLK1 degradation in HeLa LgBit (Plk1-HiBit KI) cells. In kind it is cell-based. The following applies: for PLK1 (luminescence value): released after thymidine block, compound 300 nM, luminescence at 9 hours, DMSO-only control.
Excerpt: as §1, §2
As to HeLa LgBit (Plk1-HiBit KI), cells were released after thymidine block, and then treated with compounds, and the process was as follows. Thymidine (Sigma-Aldrich Cat. No. T9250-5G) was completely dissolved in DW and used in the experiment. For thymidine block, cells were treated with 2 mM thymidine and incubated for 24 hours. For release and chemical treatment, the medium was suctioned and washed with 1×PBS. TyppLE™ was added and the cells were incubated for 5 min in a 37° C. CO2 incubator. Cells neutralized by adding complete medium were counted using the counter. For each well of a 96-well white plate (SPL), 3.3×10^4 cells were seeded in a total culture medium volume of 150 μl and incubated in a CO2 incubator.
as §3

Compound `CC[C@@H]1C(=O)N(C)c2cnc(Nc3ccc(C(=O)NCCOCCOCCNc4cccc5c4C(=O)N(C4CCC(=O)NC4=O)C5=O)cc3OC)nc2N1C1CCCC1` (stereo partly drawn) [Comparative Example 1, reference compound] gave a BRD4 degradation level on BRD4 (100 nM, 8 hours) of no less than 80%. For the same compound, the “BRD4 (luminescence value)” value at BRD4 was 0.223. This compound displayed a PLK1 degradation level at PLK1 (300 nM, 9 hours) of no less than 80%. Further, at PLK1, the “PLK1 (luminescence value)” value came to 0.148.

Turning to `CC[C@@H]1C(=O)N(C)c2cnc(Nc3ccc(C(=O)NCCOCCOCCNc4cccc5c4C(=O)N(C4CCC(=O)NC4=O)C5=O)cc3)nc2N1C1CCCC1` (stereo partly drawn) [Compound 4, 4-(((R)-8-cyclopentyl-7-ethyl-5-methyl-6-oxo-5,6,7,8-tetrahydropteridin-2-yl)amino)-N-(2-(2-(2-((2-(2,6-dioxopiperidin-3-yl)-1,3-dioxoisoindolin-4-yl)amino)ethoxy)ethoxy)ethyl)benzamide], the “BRD4 (luminescence value)” value at BRD4 came out at 0.692. Also, the “PLK1 (luminescence value)” value at PLK1 was determined as 0.208.

On to `CC[C@@H]1C(=O)N(C)c2cnc(Nc3ccc(C(=O)NCCOCCOCCOCCOCCNc4cccc5c4C(=O)N(C4CCC(=O)NC4=O)C5=O)cc3OC)nc2N1C1CCCC1` (stereo partly drawn) [Compound 5, 4-(((R)-8-cyclopentyl-7-ethyl-5-methyl-6-oxo-5,6,7,8-tetrahydropteridin-2-yl)amino)-N-(14-((2-(2,6-dioxopiperidin-3-yl)-1,3-dioxoisoindolin-4-yl)amino)-3,6,9,12-tetraoxatetradecyl)-3-methoxybenzamide], for which the “BRD4 (luminescence value)” value at BRD4 was 0.491. Besides, the “PLK1 (luminescence value)” value at PLK1 was found to be 0.140.

Regarding `CC[C@@H]1C(=O)N(C)c2cnc(Nc3ccc(C(=O)N[C@H]4CCN(C(=O)CCC(=O)N5CCN(c6cccc7c6C(=O)N(C6CCC(=O)NC6=O)C7=O)CC5)C4)cc3OC)nc2N1C1CCCC1` (stereo partly drawn) [Compound 6, 4-(((R)-8-cyclopentyl-7-ethyl-5-methyl-6-oxo-5,6,7,8-tetrahydropteridin-2-yl)amino)-N-((3S)-1-(4-(4-(2-(2,6-dioxopiperidin-3-yl)-1,3-dioxoisoindolin-4-yl)piperazin-1-yl)-4-oxobutanoyl)pyrrolidin-3-yl)-3-methoxybenzamide], at BRD4, the “BRD4 (luminescence value)” value is given as 0.731. Also, the “PLK1 (luminescence value)” value on PLK1 is reported as 0.313.

As to `CC[C@@H]1C(=O)N(C)c2cnc(Nc3ccc(C(=O)NC4CCN(C(=O)CCN5CCN(c6cccc7c6C(=O)N(C6CCC(=O)NC6=O)C7=O)CC5)CC4)cc3OC)nc2N1C1CCCC1` (stereo partly drawn) [Compound 7, 4-(((R)-8-cyclopentyl-7-ethyl-5-methyl-6-oxo-5,6,7,8-tetrahydropteridin-2-yl)amino)-N-(1-(3-(4-(2-(2,6-dioxopiperidin-3-yl)-1,3-dioxoisoindolin-4-yl)piperazin-1-yl)propanoyl)piperidin-4-yl)-3-methoxybenzamide], the “BRD4 (luminescence value)” value at BRD4 is 0.488. Besides, at PLK1, the “PLK1 (luminescence value)” value was 0.120.

With `CC[C@@H]1C(=O)N(C)c2cnc(Nc3ccc(C(=O)NC4CCN(C(=O)CCCNc5cccc6c5C(=O)N(C5CCC(=O)NC5=O)C6=O)CC4)cc3OC)nc2N1C1CCCC1` (stereo partly drawn) [Compound 8, 4-(((R)-8-cyclopentyl-7-ethyl-5-methyl-6-oxo-5,6,7,8-tetrahydropteridin-2-yl)amino)-N-(1-(4-((2-(2,6-dioxopiperidin-3-yl)-1,3-dioxoisoindolin-4-yl)amino)butanoyl)piperidin-4-yl)-3-methoxybenzamide], at BRD4, the “BRD4 (luminescence value)” value was 0.394. The “PLK1 (luminescence value)” value on PLK1 amounted to 0.204.

Regarding `COc1cc(C(=O)NCCOCCOCCNc2cccc3c2C(=O)N(C2CCC(=O)NC2=O)C3=O)ccc1Nc1ncc2c(n1)N(C1CCCCC1)[C@H](C)C(=O)N2C` (stereo partly drawn) [Compound 9, 4-(((R)-8-cyclohexyl-5,7-dimethyl-6-oxo-5,6,7,8-tetrahydropteridin-2-yl)amino)-N-(2-(2-(2-((2-(2,6-dioxopiperidin-3-yl)-1,3-dioxoisoindolin-4-yl)amino)ethoxy)ethoxy)ethyl)-3-methoxybenzamide], the “BRD4 (luminescence value)” value on BRD4 was found to be 0.484. Also, at PLK1, the “PLK1 (luminescence value)” value is recorded as 0.207.

For the compound `CC[C@@H]1C(=O)N(C)c2cnc(Nc3ccc(C(=O)N[C@H]4CC[C@H](N5CCN(CCOCCNc6cccc7c6C(=O)N(C6CCC(=O)NC6=O)C7=O)CC5)CC4)cc3OC)nc2N1C1CCCC1` (stereo partly drawn) [Compound 10, 4-(((R)-8-cyclopentyl-7-ethyl-5-methyl-6-oxo-5,6,7,8-tetrahydropteridin-2-yl)amino)-N-((1r,4R)-4-(4-(2-(2-((2-(2,6-dioxopiperidin-3-yl)-1,3-dioxoisoindolin-4-yl)amino)ethoxy)ethyl)piperazin-1-yl)cyclohexyl)-3-methoxybenzamide], the “BRD4 (luminescence value)” value at BRD4 was found to be 0.629. The “PLK1 (luminescence value)” value on PLK1 stood at 0.343.

These data come from patent publication US20240316054A1, “NOVEL PLK1 PROTEIN DEGRADATION-INDUCING COMPOUND” (UPPTHERA, INC., priority 2021, published 2024).
